Experimental data taken from ChEMBL document CHEMBL1201862, “PubChem BioAssay data set” (2004).
Activity calls are given as the source filed them.

Columns and labels:
[1] = reduction of Shn3 3'UTR-driven luciferase in osteoblasts – cell-based, Clone20 osteoblasts, firefly luciferase, cherry-picked, dose response (AID 624132); format: functional;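 further: firefly luciferase luminescence from reporter carrying the Shn3 3'UTR in osteoblasts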
[2] = biological target: T1, Heat shock factor protein 1 (Mus musculus, UniProt P38532); experiment: enhancement of HSF1-driven luciferase signal – cell-based, NIH3T3, luminescence, dose retest, confirmation (AID 435004); format: functional;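 further: stress induced by proteasome inhibitor MG132 added 30 min after compound; luciferase reporter driven by HSF1 response element in NIH3T3 cells; actives raise luminescence as potentiators of the MG132 stress response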
T1 sequence (P38532 whole entry): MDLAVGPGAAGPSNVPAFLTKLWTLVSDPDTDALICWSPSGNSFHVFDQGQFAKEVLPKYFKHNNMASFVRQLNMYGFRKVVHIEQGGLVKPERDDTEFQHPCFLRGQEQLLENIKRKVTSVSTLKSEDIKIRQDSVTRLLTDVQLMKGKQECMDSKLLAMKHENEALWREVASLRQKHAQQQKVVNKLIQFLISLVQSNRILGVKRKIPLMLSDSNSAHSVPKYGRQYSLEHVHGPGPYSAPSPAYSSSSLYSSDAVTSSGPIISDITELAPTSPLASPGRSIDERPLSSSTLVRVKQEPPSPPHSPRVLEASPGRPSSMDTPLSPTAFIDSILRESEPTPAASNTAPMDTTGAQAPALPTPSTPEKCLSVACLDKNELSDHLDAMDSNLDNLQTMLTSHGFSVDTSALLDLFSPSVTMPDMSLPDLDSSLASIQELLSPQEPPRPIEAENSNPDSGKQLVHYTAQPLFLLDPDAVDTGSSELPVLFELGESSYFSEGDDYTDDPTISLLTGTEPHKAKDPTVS

[3] = viability of HCT116 lacking mutant beta-catenin – cell-based, human colon tumor, dose response (AID 1045); format: functional;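 further: HCT116 colon tumor cells with beta catenin knocked out; cells exposed to compound for 60 hours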
[4] = biological target: T2, Mannose-6-phosphate isomerase (Homo sapiens, UniProt P34949); experiment: MPI inhibition at elevated mannose 6-phosphate – biochemical, fluorescence intensity, high mannose 6-phosphate, primary screen (AID 1220)
T2 sequence (P34949 whole entry): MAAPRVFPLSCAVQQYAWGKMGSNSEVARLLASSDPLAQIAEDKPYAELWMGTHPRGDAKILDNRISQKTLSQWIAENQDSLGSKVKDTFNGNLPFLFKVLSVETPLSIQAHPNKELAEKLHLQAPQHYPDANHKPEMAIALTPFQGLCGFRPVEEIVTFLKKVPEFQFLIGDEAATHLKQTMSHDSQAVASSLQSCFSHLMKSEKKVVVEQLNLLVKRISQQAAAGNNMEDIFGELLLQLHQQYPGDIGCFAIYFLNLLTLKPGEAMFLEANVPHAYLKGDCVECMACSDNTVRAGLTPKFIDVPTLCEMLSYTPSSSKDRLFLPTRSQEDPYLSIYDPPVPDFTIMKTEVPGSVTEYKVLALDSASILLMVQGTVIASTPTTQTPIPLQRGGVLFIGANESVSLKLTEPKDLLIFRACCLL

[5] = viability of PTEN-deleted HCT116 cells – cell-based, HCT116 PTEN knockout, dose response (AID 1047); format: functional;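 further: HCT116 colon tumor cells with PTEN knocked out; cells exposed to compound for 60 hours before readout; potency for loss of cell viability measured by luminescence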
[6] = loss of viability in HepG2 cells – cell-based, CellTiter-Glo, cherry-picked, cytotoxicity control for Shn3 inhibitor project, dose response (AID 624134); format: functional
Fatty acid synthase [7] = biological target: T3, Fatty acid synthase (Homo sapiens, UniProt P49327); experiment: inhibition of human FAS-TE enzyme activity – biochemical, kinetic fluorescence intensity, dose response (AID 624326); format: functional;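 further: rate of fluorescence rise from hydrolysis of a fluorogenic O-methyl fluorescein ester substrate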
T3 sequence (P49327 whole entry): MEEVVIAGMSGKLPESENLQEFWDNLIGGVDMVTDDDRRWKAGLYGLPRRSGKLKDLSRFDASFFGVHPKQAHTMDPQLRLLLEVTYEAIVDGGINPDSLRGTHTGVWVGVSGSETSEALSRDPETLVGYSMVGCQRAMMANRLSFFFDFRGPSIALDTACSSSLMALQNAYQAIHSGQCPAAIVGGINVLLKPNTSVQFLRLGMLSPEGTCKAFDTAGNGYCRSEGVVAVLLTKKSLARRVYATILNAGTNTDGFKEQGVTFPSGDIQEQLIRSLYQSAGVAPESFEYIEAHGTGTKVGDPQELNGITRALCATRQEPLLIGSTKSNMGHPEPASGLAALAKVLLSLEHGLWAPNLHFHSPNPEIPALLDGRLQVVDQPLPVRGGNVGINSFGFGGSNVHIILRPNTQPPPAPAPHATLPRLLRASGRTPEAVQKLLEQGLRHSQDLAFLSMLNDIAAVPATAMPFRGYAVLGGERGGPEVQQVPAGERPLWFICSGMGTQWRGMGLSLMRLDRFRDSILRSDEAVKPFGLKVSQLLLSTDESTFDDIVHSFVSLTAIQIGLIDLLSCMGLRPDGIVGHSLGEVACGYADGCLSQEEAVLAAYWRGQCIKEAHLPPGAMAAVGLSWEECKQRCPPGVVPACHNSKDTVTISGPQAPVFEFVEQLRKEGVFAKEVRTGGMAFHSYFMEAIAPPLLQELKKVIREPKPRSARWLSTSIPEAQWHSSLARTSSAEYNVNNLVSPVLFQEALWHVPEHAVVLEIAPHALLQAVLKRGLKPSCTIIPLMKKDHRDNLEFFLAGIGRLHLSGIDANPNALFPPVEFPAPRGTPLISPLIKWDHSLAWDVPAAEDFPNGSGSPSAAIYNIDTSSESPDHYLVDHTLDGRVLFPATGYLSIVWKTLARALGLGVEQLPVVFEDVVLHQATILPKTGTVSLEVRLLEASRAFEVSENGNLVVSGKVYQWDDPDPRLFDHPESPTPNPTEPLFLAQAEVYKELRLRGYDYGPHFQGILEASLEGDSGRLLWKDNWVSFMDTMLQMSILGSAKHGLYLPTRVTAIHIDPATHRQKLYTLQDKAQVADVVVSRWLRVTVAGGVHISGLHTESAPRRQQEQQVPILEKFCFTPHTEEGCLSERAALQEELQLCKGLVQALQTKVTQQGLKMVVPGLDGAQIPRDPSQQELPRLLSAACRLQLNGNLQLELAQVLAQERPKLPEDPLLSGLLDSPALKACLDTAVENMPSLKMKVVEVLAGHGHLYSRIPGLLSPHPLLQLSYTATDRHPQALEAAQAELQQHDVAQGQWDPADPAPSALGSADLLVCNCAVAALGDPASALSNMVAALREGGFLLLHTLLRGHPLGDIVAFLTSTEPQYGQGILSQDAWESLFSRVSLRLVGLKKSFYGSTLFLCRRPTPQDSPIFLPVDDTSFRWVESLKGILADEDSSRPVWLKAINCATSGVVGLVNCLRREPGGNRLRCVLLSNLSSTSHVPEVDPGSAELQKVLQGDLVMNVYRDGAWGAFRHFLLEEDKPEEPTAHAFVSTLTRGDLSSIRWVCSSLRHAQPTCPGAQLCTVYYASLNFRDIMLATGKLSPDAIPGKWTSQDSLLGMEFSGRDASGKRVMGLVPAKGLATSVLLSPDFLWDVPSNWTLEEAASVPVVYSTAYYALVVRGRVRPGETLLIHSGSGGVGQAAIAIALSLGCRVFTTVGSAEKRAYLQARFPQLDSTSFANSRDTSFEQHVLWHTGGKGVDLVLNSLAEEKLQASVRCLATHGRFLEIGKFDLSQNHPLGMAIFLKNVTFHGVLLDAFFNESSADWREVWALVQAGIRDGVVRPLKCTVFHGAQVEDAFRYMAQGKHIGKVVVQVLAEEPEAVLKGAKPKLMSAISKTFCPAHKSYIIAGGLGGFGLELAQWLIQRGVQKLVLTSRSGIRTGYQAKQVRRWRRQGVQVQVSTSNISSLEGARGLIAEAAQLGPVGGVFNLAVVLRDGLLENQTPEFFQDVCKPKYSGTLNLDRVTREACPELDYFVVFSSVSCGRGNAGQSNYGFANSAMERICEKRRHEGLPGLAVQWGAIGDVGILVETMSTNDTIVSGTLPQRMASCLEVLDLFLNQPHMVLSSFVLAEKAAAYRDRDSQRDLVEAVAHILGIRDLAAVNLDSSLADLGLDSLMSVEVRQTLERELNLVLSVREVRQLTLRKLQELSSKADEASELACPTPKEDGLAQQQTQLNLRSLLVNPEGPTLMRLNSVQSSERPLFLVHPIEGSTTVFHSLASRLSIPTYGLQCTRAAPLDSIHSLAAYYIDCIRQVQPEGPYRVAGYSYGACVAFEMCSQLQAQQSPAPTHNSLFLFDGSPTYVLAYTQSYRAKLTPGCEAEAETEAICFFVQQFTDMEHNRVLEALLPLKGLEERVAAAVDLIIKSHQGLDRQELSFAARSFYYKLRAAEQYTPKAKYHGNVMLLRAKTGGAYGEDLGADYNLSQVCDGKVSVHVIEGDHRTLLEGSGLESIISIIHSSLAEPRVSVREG

[8] = non-specific 3'UTR reporter inhibition in Clone20-Shn3RL – cell-based, Renilla luciferase, cherry-picked, counter-screen for Shn3 inhibitor project, dose response (AID 624133); format: functional
Fatty acid synthase [9] = biological target: T3, Fatty acid synthase; experiment: inhibition of human FAS-TE enzyme activity – biochemical, endpoint fluorescence intensity, uHTS hits, dose response (AID 624327); format: functional;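 further: fluorescence from hydrolysis of an O-methyl fluorescein acyl ester substrate by the enzyme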
[10] = Luminescence Cell-Based Dose Retest to Confirm Inhibitors of Cancer Stem Cells. [Related pubchem assays (depositor defined):AID2717, AID2721]; format: functional; conditions: Homo sapiens
[11] = Trypanosoma cruzi growth suppression in host cells – NIH3T3 host cells, beta-gal luminescence, confirmation (AID 2044); format: functional, cell-based;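 further: intracellular parasites grown in NIH/3T3 mouse fibroblasts as host cells; luminescent beta-galactosidase reporter signal from transgenic T. cruzi replicating inside host cells; inhibitors lower the luminescence signal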
[12] = NIH3T3 cell viability loss – ATP luminescence, mouse fibroblasts, counter-screen, dose response (AID 2010); format: functional, cell-based;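 further: cells exposed to compound for about 90 hours before reading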
[13] = viability loss of HPDE-C7K cells – cell-based, fluorescence, HTS, primary screen (AID 431); format: functional; conditions: Homo sapiens
[14] = HPDE-C7 pancreatic duct cell viability loss – fluorescence, HTS (AID 430); format: functional, cell-based; conditions: Homo sapiens
Estrogen receptor = biological target: T4, Estrogen receptor (Homo sapiens, UniProt P03372);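 further: potency for inhibiting coactivator peptide recruitment to the receptor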
T4 sequence (P03372 whole entry): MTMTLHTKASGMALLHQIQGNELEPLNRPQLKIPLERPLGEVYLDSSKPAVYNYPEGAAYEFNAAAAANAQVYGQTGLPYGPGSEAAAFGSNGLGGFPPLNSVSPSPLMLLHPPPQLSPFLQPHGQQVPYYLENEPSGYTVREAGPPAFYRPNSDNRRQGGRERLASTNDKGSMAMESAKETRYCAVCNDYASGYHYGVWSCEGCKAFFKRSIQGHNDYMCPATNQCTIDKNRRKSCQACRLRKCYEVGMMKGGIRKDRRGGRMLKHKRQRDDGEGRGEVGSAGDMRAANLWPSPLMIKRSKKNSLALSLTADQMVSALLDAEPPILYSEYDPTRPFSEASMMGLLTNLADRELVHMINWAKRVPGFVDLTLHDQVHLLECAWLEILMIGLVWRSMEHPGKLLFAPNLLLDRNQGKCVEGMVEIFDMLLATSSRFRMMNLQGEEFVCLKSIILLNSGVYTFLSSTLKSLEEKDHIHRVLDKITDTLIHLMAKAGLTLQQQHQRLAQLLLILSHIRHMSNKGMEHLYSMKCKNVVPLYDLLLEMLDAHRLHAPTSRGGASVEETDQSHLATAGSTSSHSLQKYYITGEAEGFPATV

[15] = biological target: T5, Carboxy-terminal domain RNA polymerase II polypeptide A small phosphatase 1 (Homo sapiens, UniProt Q9GZU7); experiment: CTDSP1 inhibitors, concentration-response, biochemical, absorbance readout, ultra-high-throughput screen actives (AID 540297); format: functional
T5 sequence (Q9GZU7 whole entry): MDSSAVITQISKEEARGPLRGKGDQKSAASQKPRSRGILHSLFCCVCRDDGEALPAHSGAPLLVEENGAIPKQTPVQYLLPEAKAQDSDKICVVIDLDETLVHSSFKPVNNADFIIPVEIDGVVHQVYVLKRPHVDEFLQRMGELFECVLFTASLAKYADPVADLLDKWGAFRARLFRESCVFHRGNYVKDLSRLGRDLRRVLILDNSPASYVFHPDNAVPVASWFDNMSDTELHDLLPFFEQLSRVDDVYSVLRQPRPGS

[16] = fluconazole-exposed Candida albicans growth modulators – fluorescence, retest, confirmation (AID 2467); format: functional, cell-based
[17] = biological target: Nucleotide-binding oligomerization domain-containing protein 2 (Homo sapiens, UniProt Q9HC29); experiment: inhibition of NOD2-driven NF-kB reporter – cell-based, luminescence, uHTS, HEK293 (AID 1566); format: functional
Nucleotide-binding oligomerization domain-containing protein 2, sequence (Q9HC29 whole entry, the tested form may be a part): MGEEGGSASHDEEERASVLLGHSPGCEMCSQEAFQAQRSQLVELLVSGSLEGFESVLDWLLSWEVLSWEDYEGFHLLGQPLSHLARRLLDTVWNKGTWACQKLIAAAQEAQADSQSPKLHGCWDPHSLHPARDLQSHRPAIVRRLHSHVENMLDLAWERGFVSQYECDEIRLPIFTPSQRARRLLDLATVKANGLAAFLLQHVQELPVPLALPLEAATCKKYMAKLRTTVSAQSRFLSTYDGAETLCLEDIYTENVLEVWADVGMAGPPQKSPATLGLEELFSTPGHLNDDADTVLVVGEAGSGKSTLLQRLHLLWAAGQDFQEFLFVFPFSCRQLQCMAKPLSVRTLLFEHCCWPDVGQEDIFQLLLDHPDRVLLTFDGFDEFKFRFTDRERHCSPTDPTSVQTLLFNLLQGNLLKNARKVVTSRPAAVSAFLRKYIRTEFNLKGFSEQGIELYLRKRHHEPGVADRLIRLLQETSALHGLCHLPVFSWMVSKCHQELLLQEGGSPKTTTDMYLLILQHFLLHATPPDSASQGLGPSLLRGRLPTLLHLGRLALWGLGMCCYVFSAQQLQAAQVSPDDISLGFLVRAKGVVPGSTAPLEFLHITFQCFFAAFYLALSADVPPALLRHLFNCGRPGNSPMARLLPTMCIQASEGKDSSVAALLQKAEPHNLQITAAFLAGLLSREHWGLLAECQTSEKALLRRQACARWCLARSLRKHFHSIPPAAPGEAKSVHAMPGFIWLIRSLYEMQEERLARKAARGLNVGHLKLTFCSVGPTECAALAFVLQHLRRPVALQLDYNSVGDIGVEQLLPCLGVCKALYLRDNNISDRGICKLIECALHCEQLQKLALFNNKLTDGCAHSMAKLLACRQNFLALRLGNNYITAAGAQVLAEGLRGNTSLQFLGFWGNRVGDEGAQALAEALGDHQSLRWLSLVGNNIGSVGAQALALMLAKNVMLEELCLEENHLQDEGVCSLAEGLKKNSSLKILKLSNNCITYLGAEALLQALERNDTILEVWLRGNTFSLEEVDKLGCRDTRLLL

HEK293 [18] = experiment: cells; format: functional, cell-based; conditions: Homo sapiens
HEK293 [19] = experiment: cells; format: functional, cell-based; conditions: Homo sapiens; remark: listed apart in the source
HEK293 [20] = experiment: cells; format: functional, cell-based; conditions: Homo sapiens; remark: listed apart in the source
[21] = biological target: T6, Microphthalmia-associated transcription factor (Homo sapiens, UniProt O75030); experiment: reducers of TRPM1 reporter luminescence, concentration series – cell-based, SK-MEL-5, cherry-picked, set 3, MITF inhibitor project, dose response (AID 493073); format: functional;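 further: SK-MEL-5 melanoma cells with luciferase driven by the MITF target TRPM1 promoter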
T6 sequence (O75030 whole entry): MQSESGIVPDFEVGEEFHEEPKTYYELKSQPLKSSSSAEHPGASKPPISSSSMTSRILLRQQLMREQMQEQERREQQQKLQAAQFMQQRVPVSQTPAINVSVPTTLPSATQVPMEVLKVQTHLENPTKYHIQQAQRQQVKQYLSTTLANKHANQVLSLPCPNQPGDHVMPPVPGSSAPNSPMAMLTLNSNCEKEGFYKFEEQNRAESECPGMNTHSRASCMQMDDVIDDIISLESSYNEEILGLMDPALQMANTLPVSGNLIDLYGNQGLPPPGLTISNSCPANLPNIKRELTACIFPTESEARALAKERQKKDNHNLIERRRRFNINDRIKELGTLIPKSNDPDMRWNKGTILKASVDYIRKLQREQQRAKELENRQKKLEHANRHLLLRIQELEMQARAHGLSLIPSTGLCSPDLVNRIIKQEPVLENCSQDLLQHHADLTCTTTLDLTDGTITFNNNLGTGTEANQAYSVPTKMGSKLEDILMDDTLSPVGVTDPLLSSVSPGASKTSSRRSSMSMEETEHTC

HEK293 [22] = experiment: NOD2 signaling inhibitors in MDP-stimulated cells, cell-based, uHTS, luminescence (AID 2001); format: functional; conditions: Homo sapiens
HEK293 [23] = experiment: inhibition of NOD1-driven NF-kB reporter – cell-based, luminescence, uHTS, primary screen (AID 1578); format: functional; conditions: Homo sapiens
[24] = NIH-3T3 fibroblast cytotoxicity, dose response, cytotoxicity control, cell-based, fluorescence, Alamar Blue, secondary assay (AID 2327); format: functional;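 further: NIH-3T3 mouse fibroblasts cultured with fluconazole at 8 µg/mL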
[25] = biological target: DNA dC->dU-editing enzyme APOBEC-3G (Homo sapiens, UniProt Q9HC16); experiment: Dose Response confirmation of small molecule APOBEC3G DNA Deaminase Inhibitors via a fluorescence-based single-stranded DNA deaminase assay. [Related pubchem assays (depositor defined):AID493012, AID493028]; format: functional
DNA dC->dU-editing enzyme APOBEC-3G, sequence (Q9HC16 whole entry): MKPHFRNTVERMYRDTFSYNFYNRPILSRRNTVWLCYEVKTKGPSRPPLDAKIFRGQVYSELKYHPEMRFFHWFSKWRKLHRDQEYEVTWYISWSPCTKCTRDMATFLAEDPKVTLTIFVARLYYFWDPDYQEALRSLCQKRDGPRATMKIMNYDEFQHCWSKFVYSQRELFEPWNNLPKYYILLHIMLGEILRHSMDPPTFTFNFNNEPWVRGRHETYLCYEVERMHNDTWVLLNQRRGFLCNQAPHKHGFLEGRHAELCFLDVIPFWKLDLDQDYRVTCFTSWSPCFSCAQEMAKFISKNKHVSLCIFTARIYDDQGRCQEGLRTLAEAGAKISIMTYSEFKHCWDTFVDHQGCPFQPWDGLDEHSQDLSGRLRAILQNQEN

Prothrombin = Prothrombin (Homo sapiens, UniProt P00734); experiment: Thrombin 1536 HTS Dose Response Confirmation. [Related pubchem assays: 1046 (Thrombin 1536 HTS; hits were confirmed in this assay)]; format: functional

In the case of O=[N+]([O-])c1c(NCCCO)cc(Sc2ccc(Cl)cc2)c2nonc12, the AC50 [1] is reported as 5.63 µM (active), the EC50 [2] is reported as 4.81 µM (active) and the EC50 [3] is reported as 9.46 µM (active). For the same compound, the IC50 [4] was > 50 µM (not active), the EC50 [5] was 13.5 µM (active) and the AC50 [6] was 25.4 µM (active). The IC50 (Fatty acid synthase [7]) was 6.69 µM (active), the AC50 [8] was 12.7 µM (active) and the IC50 (Fatty acid synthase [9]) was 11.5 µM (active). For the same compound, the AC50 [10] was 4.49 µM (active).

With O=c1cc(CN2CCN(Cc3ccccc3)CC2)c2ccc(O)cc2o1 the EC50 [11] was < 0.1 µM (active), the EC50 [12] was > 60 µM (not active) and the EC50 (cells) was 0.038 µM (active).

With CCOC(=O)C1=C(N)c2ccccc2CC1C(C)C (configuration not stated) the EC50 [13] was > 20 µM (not active) and the EC50 [14] was > 20 µM (not active).

For Cn1c(SCc2cc(=O)n3cc(Br)ccc3n2)nnc1C1COc2ccccc2O1 (configuration not stated), the IC50 (Estrogen receptor) was 25.2 µM (active) and the IC50 [15] was 17.8 µM (active).

For O=C(CCl)N1c2ccccc2SCC1c1ccccc1 (configuration not stated), the EC50 [16] was > 38 µM (not active), the EC50 [17] was > 20 µM (inactive) and the IC50 (HEK293 [18]) was 5.49 µM (active). For the same compound, the IC50 (HEK293 [19]) was > 20 µM (inactive), the IC50 (HEK293 [20]) was > 20 µM (inactive) and the AC50 [21] was 4.2 µM (active). For the same compound, the IC50 (HEK293 [22]) was 8.37 µM (active), the EC50 (HEK293 [23]) was 11.5 µM (active) and the EC50 [24] was 7.57 µM (inconclusive).

In the case of O=C(Nc1cc(S(=O)(=O)Nc2ccc(Cl)cc2)ccc1O)c1ccc(S(=O)(=O)N2CCCCCC2)cc1, the IC50 [15] is reported as 2.73 µM (active) and the IC50 [25] is reported as 73.7 µM (active).

In the case of COc1ccc(C(=O)NC(=C(Cl)Cl)S(=O)(=O)c2ccc(C)cc2)cc1, the EC50 [17] is reported as > 20 µM (inactive), the IC50 (HEK293 [18]) is reported as 8.07 µM (active) and the IC50 (HEK293 [19]) is reported as > 20 µM (inactive). The IC50 (HEK293 [20]) was > 20 µM (inactive), the IC50 (HEK293 [22]) was 8.96 µM (active) and the EC50 (HEK293 [23]) was 12.3 µM (active).

With O=C(CCCN1C(=O)c2cccnc2C1=O)N1CC(=O)N(CCc2ccccc2)C(=O)C1 the EC50 [13] was > 20 µM (not active) and the EC50 [14] was > 20 µM (not active).

In the case of CC(=O)c1ccc(S(=O)(=O)Nc2ccc(-c3cn4c(n3)SCC4)cc2)cc1, the IC50 (Prothrombin) is reported as > 50 µM (not active).
